The values that follow come from US11970494B2, “6-heteroaryloxy benzimidazoles and azabenzimidazoles as JAK2 inhibitors” (Ajax Therapeutics, Inc., priority 2021, dated 2024).

A short description of data set [1]: Caco2 Permeability Assay. Format: in vitro ADME. The conditions noted are these: human; for efflux ratio at 2 h, 5 μM: pH 7.4, Caco-2, 5 μM, read-out: Efflux Ratio (ER); for Papp A→B at 2 h, 5 μM: pH 7.4, Caco-2, apical to basolateral. As to the method:
Preparation of Caco-2 Cells: 50 μL and 25 mL of cell culture medium are added to each well of a Transwell® insert and reservoir, respectively. Then, the HTS Transwell® plates are incubated at 37° C., 5% CO2 for 1 hour before cell seeding. Caco-2 cell cells are diluted to 6.86×10^5 cells/mL with culture medium, and 50 μL of cell suspension are dispensed into the filter well of the 96-well HTS Transwell® plate. Cells are cultivated for 14-18 days in a cell culture incubator at 37° C., 5% CO2, 95% relative humidity. Cell culture medium is replaced every other day, beginning no later than 24 hours after initial plating.
Preparation of Stock Solutions: 10 mM stock solutions of test compounds are prepared in DMSO. The stock solutions of positive controls are prepared in DMSO at the concentration of 10 mM. Digoxin and propranolol are used as control compounds in this assay.
Assessment of Cell Monolayer Integrity: Medium is removed from the reservoir and each Transwell® insert and is replaced with prewarmed fresh culture medium. Transepithelial electrical resistance (TEER) across the monolayer is measured using Millicell Epithelial Volt-Ohm measuring system (Millipore, USA). The Plate is returned to the incubator once the measurement is done. The TEER value is calculated according to the following equation: TEER measurement (ohms)×Area of membrane (cm^2)=TEER value (ohm⋅cm^2). A TEER value greater than 230 ohm⋅cm^2 indicates a well-qualified Caco-2 monolayer.
Assay Procedure: The Caco-2 plate is removed from the incubator and washed twice with pre-warmed HBSS (10 mM HEPES, pH 7.4), and then incubated at 37° C. for 30 minutes. The stock solutions of control compounds are diluted in DMSO to get 1 mM solutions and then diluted with HBSS (10 mM HEPES, pH 7.4) to get 5 μM working solutions. The stock solutions of the test compounds are diluted in DMSO to get 1 mM solutions and then diluted with HBSS (10 mM HEPES and 4% BSA, pH 7.4) to get 5 μM working solutions. The final concentration of DMSO in the incubation system is 0.5%. To determine the rate of drug transport in the apical to basolateral direction. 75 μL of 5 μM working solutions of test compounds are added to the Transwell® insert (apical compartment) and the wells in the receiver plate (basolateral compartment) are filled with 235 μL of HBSS (10 mM HEPES and 4% BSA, pH 7.4). To determine the rate of drug transport in the basolateral to apical direction, 235 μL of 5 μM working solutions of test compounds are added to the receiver plate wells (basolateral compartment) and then the Transwell® inserts (apical compartment) are filled with 75 μL of HBSS (10 mM HEPES and 4% BSA, pH 7.4). Time 0 samples are prepared by transferring 50 μL of 5 μM working solution to wells of the 96-deepwell plate, followed by the addition of 200 μL cold methanol containing appropriate internal standards (IS). The plates are incubated at 37° C. for 2 hours. At the end of the incubation, 50 μL samples from donor sides (apical compartment for Ap→*Bl flux, and basolateral compartment for Bl→Ap) and receiver sides (basolateral compartment for Ap→Bl flux, and apical compartment for Bl→Ap) are transferred to wells of a new 96-well plate, followed by the addition of 4 volume of cold acetonitrile or methanol containing appropriate internal standards (IS). Samples are vortexed for 5 minutes and then centrifuged at 3,220 g for 40 minutes. An aliquot of 100 μL of the supernatant is mixed with an appropriate volume of ultra-pure water before LC-MS/MS analysis. To determine the Lucifer Yellow leakage after 2 hour transport period, stock solution of Lucifer yellow is prepared in ultra-pure water and diluted with HBSS (10 mM HEPES, pH 7.4) to reach the final concentration of 100 μM. 100 μL of the Lucifer yellow solution is added to each Transwell® insert (apical compartment), followed by filling the wells in the receiver plate (basolateral compartment) with 300 μL of HBSS (10 mM HEPES, pH 7.4). […]

Data set [2] in a line: Hepatocyte Stability Assay, rat hepatocytes. Format: in vitro ADME. The conditions noted are these: cryopreserved hepatocytes, read-out: Rat Heps CLint. As to the method:
(§1) 10 mM stock solutions of test compound and positive control are prepared in DMSO. Stock solutions are diluted to 100 μM by combining 198 μL of 50% acetonitrile/50% water and 2 μL of 10 mM stock solution. Verapamil is used as positive control in the assay. Vials of cryopreserved hepatocytes are thawed in a 37° C. water bath with gently shaking. The contents are poured into the 50 mL thawing medium conical tube. Vials are centrifuged at 100 g for 10 minutes at room temperature. Thawing medium is aspirated and hepatocytes are re-suspended with serum-free incubation medium to yield ˜1.5×10^6 cells/mL. Cell viability and density are counted using a Trypan Blue exclusion, and then cells are diluted with serum-free incubation medium to a working cell density of 0.5×10^6 viable cells/mL. A portion of the hepatocytes at 0.5×10^6 viable cells/mL are boiled for 5 min prior to adding to the plate as negative control to eliminate the enzymatic activity so that little or no substrate turnover should be observed. Aliquots of 198 μL hepatocytes are dispensed into each well of a 96-well non-coated plate. The plate is placed in the incubator for approximately 10 minutes. Aliquots of 2 μL of the 100 μM test compound and 2 μL positive control are added into respective wells of a non-coated 96-well plate to start the reaction. The final concentration of test compound is 1 μM. This assay is performed in duplicate. The plate is incubated in the incubator for the designed time points. 25 μL of contents are transferred and mixed with 6 volumes (150 μL) of cold acetonitrile with internal standard (100 nM alprazolam, 200 nM labetalol, 200 nM caffeine and 200 nM diclofenac) to terminate the reaction at time points of 0, 15, 30, 60, 90 and 120 minutes. Samples are centrifuged for 25 minutes at 3,220 g and aliquots of 150 μL of the supernatants are used for LC-MS/MS analysis.

Data set [3] in a line: Hepatocyte Stability Assay, human hepatocytes. The conditions noted are these: cryopreserved hepatocytes, read-out: Human Heps CLint. Type of data set: in vitro ADME. As to the method:
as §1

The target in data set [4] is T1, JAK2 (JH1 domain-catalytic, Y1007F,Y1008F) kinase (Homo sapiens, UniProt O60674, Y1007F/Y1008F).
T1 construct: made in house; host or cells: transiently transfected HEK293 cells
In words: JAK2 Binding Assay (JAK2 JH1 Domain Binding Assay). The conditions noted are these: JAK2 JH1 domain binding, qPCR detection; read-out: JAK2 Kd. On the technique in general: In qPCR the cycle at which signal appears reflects the starting amount.

T1 sequence (O60674 849-1124 Y1007F/Y1008F limits assumed): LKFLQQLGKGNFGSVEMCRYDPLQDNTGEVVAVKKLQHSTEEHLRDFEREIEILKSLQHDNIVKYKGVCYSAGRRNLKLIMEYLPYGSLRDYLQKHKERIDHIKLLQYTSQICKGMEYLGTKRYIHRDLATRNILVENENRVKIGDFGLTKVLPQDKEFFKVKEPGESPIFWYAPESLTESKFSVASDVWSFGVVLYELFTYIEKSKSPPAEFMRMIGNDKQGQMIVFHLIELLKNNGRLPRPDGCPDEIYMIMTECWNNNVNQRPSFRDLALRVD

As usually defined, the Papp A→B is the apparent permeability from the apical to the basolateral side of a cell layer. A high value points to fast passage. As usually defined, the Kd is the free concentration of one partner at which half of the binding sites on the other are occupied at equilibrium, for simple one-to-one binding. As for `COCCOC(=O)Nc1cc(Oc2cnc3nc(Nc4cc5n(n4)CCC54CCC4)n(C)c3c2C#N)ccn1` [Example I-62, 2-methoxyethyl(4-((7-cyano-2-((5′,6′-dihydrospiro[cyclobutane-1,4′-pyrrolo[1,2-b]pyrazol]-2′-yl)amino)-1-methyl-1H-imidazo[4,5-b]pyridin-6-yl)oxy)pyridin-2-yl)carbamate], in data set [1], the efflux ratio at 2 h, 5 μM is at most 2 and the Papp A→B at 2 h, 5 μM came out at 5 ×10⁻⁶ cm/s. The CLint scaled at 1 μM in data set [2] lay within 17 to 35 mL/min/kg. In addition, in data set [3], the CLint scaled at 1 μM lay in the range of 6 to 12 mL/min/kg. Besides, the Kd in data set [4] is below 10 nM.
The matching figures for `COCC(=O)Nc1cc(Oc2cnc3nc(Nc4cc(C(F)(F)F)cn(C)c4=O)n(C)c3c2C#N)ccn1` [Example I-79, N-(4-((7-cyano-1-methyl-2-((1-methyl-2-oxo-5-(trifluoromethyl)-1,2-dihydropyridin-3-yl)amino)-1H-imidazo[4,5-b]pyridin-6-yl)oxy)pyridin-2-yl)-2-methoxyacetamide]: at most 2, 15 ×10⁻⁶ cm/s, 17 to 35 mL/min/kg, 12 to 20 mL/min/kg and below 10 nM.
Taken in the same sequence, the figures for `CN(C)C(=O)Nc1cc(Oc2cnc3nc(Nc4cc5n(n4)CCC54CCC4)n(C)c3c2C#N)ccn1` [Example I-56, 3-(4-((7-cyano-2-((5′,6′-dihydrospiro[cyclobutane-1,4′-pyrrolo[1,2-b]pyrazol]-2′-yl)amino)-1-methyl-1H-imidazo[4,5-b]pyridin-6-yl)oxy)pyridin-2-yl)-1,1-dimethylurea] were at most 2, 5 ×10⁻⁶ cm/s, 17 to 35 mL/min/kg, at most 6 mL/min/kg and below 10 nM.
Taken in the same sequence, the figures for `Cn1c(Nc2cc3n(n2)CCC32CCC2)nc2ncc(Oc3ccnc(NC(=O)C4CC4)c3)c(C#N)c21` [Example I-122, N-(4-((7-cyano-2-((5′,6′-dihydrospiro[cyclobutane-1,4′-pyrrolo[1,2-b]pyrazol]-2′-yl)amino)-1-methyl-1H-imidazo[4,5-b]pyridin-6-yl)oxy)pyridin-2-yl)cyclopropanecarboxamide] were 2 to 5, 2 ×10⁻⁶ cm/s, below 17 mL/min/kg, 12 to 20 mL/min/kg and below 10 nM.
With `Cn1cc(C(F)(F)F)cc(Nc2nc3ncc(Oc4ccnc(NC(=O)N5CCC5)c4)c(C#N)c3n2C)c1=O` [Example I-7, N-(4-((7-cyano-1-methyl-2-((1-methyl-2-oxo-5-(trifluoromethyl)-1,2-dihydropyridin-3-yl)amino)-1H-imidazo[4,5-b]pyridin-6-yl)oxy)pyridin-2-yl)azetidine-1-carboxamide], in data set [1], the efflux ratio at 2 h, 5 μM was in the range of 2 to 5. In addition, the Papp A→B at 2 h, 5 μM in data set [1] came to 6 ×10⁻⁶ cm/s. The values for the CLint scaled at 1 μM in data set [2] and in data set [3] were 17 to 35 mL/min/kg and at most 6 mL/min/kg, respectively. Also, the Kd in data set [4] was below 10 nM.
Turning to `COC1CN(C(=O)Nc2cc(Oc3cnc4nc(Nc5cc6n(n5)CCCC6(F)F)n(C)c4c3C#N)ccn2)C1` [Example I-26, N-(4-((7-cyano-2-((4,4-difluoro-4,5,6,7-tetrahydropyrazolo[1,5-a]pyridin-2-yl)amino)-1-methyl-1H-imidazo[4,5-b]pyridin-6-yl)oxy)pyridin-2-yl)-3-methoxyazetidine-1-carboxamide], in data set [1], the efflux ratio at 2 h, 5 μM was 5 to 10 and the Papp A→B at 2 h, 5 μM came to 2 ×10⁻⁶ cm/s. Besides, in data set [2], the CLint scaled at 1 μM was below 17 mL/min/kg. Further, the CLint scaled at 1 μM in data set [3] lay in the range of 6 to 12 mL/min/kg. Also, in data set [4], the dissociation constant Kd was below 10 nM.
Turning to `CC(=O)Nc1cc(Oc2cnc3nc(Nc4cc5n(n4)CCCC54CC4)n(C)c3c2C#N)ccn1` [Example I-114, N-(4-((7-cyano-2-((6′,7′-dihydro-5′H-spiro[cyclopropane-1,4′-pyrazolo[1,5-a]pyridin]-2′-yl)amino)-1-methyl-1H-imidazo[4,5-b]pyridin-6-yl)oxy)pyridin-2-yl)acetamide], in data set [1], the efflux ratio at 2 h, 5 μM was at most 2 and the Papp A→B at 2 h, 5 μM is 4 ×10⁻⁶ cm/s. For the same compound, in data set [2], the CLint scaled at 1 μM is 35 to 45 mL/min/kg. The CLint scaled at 1 μM in data set [3] fell in the range of 6 to 12 mL/min/kg. Besides, the Kd in data set [4] was below 10 nM.
Taken in the same sequence, the figures for `CCN1CCN(Cc2ccc(Nc3nc4ccc(Oc5ccnc(NC(C)=O)c5)cc4n3C)cc2C(F)(F)F)CC1` [Example R-1, reference compound] were 10 to 30, 0.4 ×10⁻⁶ cm/s, 35 to 45 mL/min/kg, 12 to 20 mL/min/kg and below 10 nM.
On to `Cn1cc(C(F)(F)F)cc(Nc2nc3ncc(Oc4ccnc(NC(=O)O[C@@H]5CCOC5)c4)c(C#N)c3n2C)c1=O` [Example I-18, (R)-Tetrahydrofuran-3-yl(4-((7-cyano-1-methyl-2-((1-methyl-2-oxo-5-(trifluoromethyl)-1,2-dihydropyridin-3-yl)amino)-1H-imidazo[4,5-b]pyridin-6-yl)oxy)pyridin-2-yl)carbamate], for which the efflux ratio at 2 h, 5 μM in data set [1] is 2 to 5. In data set [1], the Papp A→B at 2 h, 5 μM amounted to 2 ×10⁻⁶ cm/s. The CLint scaled at 1 μM lay within 17 to 35 mL/min/kg in data set [2] and 6 to 12 mL/min/kg in data set [3]. Besides, the Kd in data set [4] is below 10 nM.
Taken in the same sequence, the figures for `CC(=O)Nc1cc(Oc2cnc3nc(Nc4cc5n(n4)CCOCC5(C)C)n(C)c3c2C#N)ccn1` [Example I-118, N-(4-((7-cyano-2-((4,4-dimethyl-4,5,7,8-tetrahydropyrazolo[1,5-d][1,4]oxazepin-2-yl)amino)-1-methyl-1H-imidazo[4,5-b]pyridin-6-yl)oxy)pyridin-2-yl)acetamide] were 2 to 5, 5 ×10⁻⁶ cm/s, below 17 mL/min/kg, at most 6 mL/min/kg and below 10 nM.
